Among the data in ChEMBL document CHEMBL1150056, “5-Epi-isospongiaquinone, a new sesquiterpene/quinone antibiotic from an Australian marine sponge, Spongia hispida” (1992) are MIC values, retold here.

One experiment concerns Staphylococcus aureus. Kind of experiment: Antibacterial activity against Staphylococcus aureus assessed per disk. The format is functional.
A further experiment relates to Micrococcus sp. Kind of experiment: Antibacterial activity against Micrococcus sp. assessed per disk. In kind it is functional.

For `CCOC1=CC(=O)C(O)=C(C[C@]2(C)[C@@H](C)CC[C@@]3(C)C(C)=CCC[C@@H]23)C1=O`, the MIC with Staphylococcus aureus and against Micrococcus sp. was 50 µg each time.

For `COC1=CC(=O)C(O)=C(C[C@]2(C)[C@@H](C)CC[C@@]3(C)C(C)=CCC[C@@H]23)C1=O`, the MIC against Staphylococcus aureus and with Micrococcus sp. was 20 µg each time.
